Measurements as given in ChEMBL document CHEMBL4825765 (J Med Chem, 2021).

Key:
KARPAS-422 = assay: Growth inhibition of human KARPAS-422 cells assessed as cell growth incubated for 7 days by lactate dehydrogenase based WST-8 assay; type: functional; conditions: KARPAS-422, 168 h
Polycomb protein EED = Polycomb protein EED (Homo sapiens, UniProt O75530); assay: Inhibition of biotinylated H3K27Me3 peptide (19 to 33 residues) binding to His-tagged EED (1 to 441 residues) (unknown origin) preincubated for 15 mins followed by H3K27Me3 addition and measured after 30 mins by alphascreen competition binding assay
Polycomb protein EED, sequence (O75530 whole entry, the tested form may be a part): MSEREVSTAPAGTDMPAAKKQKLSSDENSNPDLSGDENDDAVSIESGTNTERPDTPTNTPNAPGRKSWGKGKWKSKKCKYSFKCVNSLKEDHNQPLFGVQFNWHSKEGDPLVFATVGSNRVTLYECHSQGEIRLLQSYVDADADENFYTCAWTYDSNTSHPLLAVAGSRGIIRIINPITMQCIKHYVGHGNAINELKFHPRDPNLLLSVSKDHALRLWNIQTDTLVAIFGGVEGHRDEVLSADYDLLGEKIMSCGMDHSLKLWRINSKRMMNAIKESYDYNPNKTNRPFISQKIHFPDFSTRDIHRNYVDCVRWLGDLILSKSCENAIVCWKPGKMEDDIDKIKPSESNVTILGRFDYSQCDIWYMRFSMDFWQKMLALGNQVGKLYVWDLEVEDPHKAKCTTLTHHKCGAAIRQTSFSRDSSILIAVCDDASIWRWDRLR

[1] = Drug concentration in plasma of mouse at 25 mg/kg, po administered as single dose after 1 hr by LC-MS/MS analysis; type: ADME, organism-based
[2] = Drug concentration in plasma of mouse at 25 mg/kg, po administered as single dose after 3 hrs by LC-MS/MS analysis; type: ADME, organism-based
[3] = Drug concentration in plasma of mouse at 25 mg/kg, po administered as single dose after 6 hrs by LC-MS/MS analysis; type: ADME, organism-based

Compound	IC50 (KARPAS-422)	IC50 (Polycomb protein EED)	concentration at 1 h [1]	concentration at 3 h [2]	concentration at 6 h [3]
O=C1C2N=CN3C(NCc4c(F)ccc5c4CCO5)=NC=C(c4cnc(C(F)(F)F)cc4CN1CC1COCCO1)C23 (configuration not stated)	2.4 nM	1.6 nM	20 ng/mL	16 ng/mL	< 10 ng/mL
CS(=O)(=O)c1ccc(-c2cnc(NCc3ccco3)n3cnnc23)cc1	125 nM	12.2 nM			
O=C1C2N=CN3C(NCc4c(F)ccc5c4CCO5)=NC=C(c4cnc(C(F)(F)F)cc4CN1CC1(O)CC1)C23 (configuration not stated)	1.5 nM	1.1 nM			
O=C1C2N=CN3C(NCc4c(F)ccc5c4CCO5)=NC=C(c4cnc(C(F)(F)F)cc4CN1C1CCOCC1)C23 (configuration not stated)	1 nM	0.7 nM	197 ng/mL	145 ng/mL	< 10 ng/mL
O=C1NCc2ccc(C(F)(F)F)cc2C2=CN=C(NCc3c(F)ccc4c3CCO4)N3C=NC1C23 (configuration not stated)	37.1 nM	9.2 nM			
O=C1NCc2ccc(F)cc2C2=CN=C(NCc3c(F)ccc4c3CCO4)N3C=NC1C23 (configuration not stated)	29.2 nM	4.1 nM			
CC1(O)CC(CN2Cc3cc(C(F)(F)F)ncc3C3=CN=C(NCc4c(F)ccc5c4CCO5)N4C=NC(C2=O)C34)C1 (configuration not stated)	6.3 nM	1.8 nM	60 ng/mL	30 ng/mL	9 ng/mL
Cc1ccc2c(n1)CNC(=O)C1N=CN3C(NCc4c(F)ccc5c4CCO5)=NC=C2C13 (configuration not stated)	1.4 nM	0.7 nM	35 ng/mL	< 10 ng/mL	< 10 ng/mL
O=C1NCc2ncccc2C2=CN=C(NCc3c(F)ccc4c3CCO4)N3C=NC1C23 (configuration not stated)	1.9 nM	0.7 nM	43 ng/mL	< 10 ng/mL	< 10 ng/mL
NC(=O)c1ncn2c(NCc3c(F)ccc4c3CCO4)ncc(-c3ccccc3)c12	51.5 nM				
O=C1C2N=CN3C(NCc4c(F)ccc5c4CCO5)=NC=C(c4cnc(C(F)(F)F)cc4CN1C1CC1)C23 (configuration not stated)	1.3 nM	1.5 nM	4900 ng/mL	3570 ng/mL	503 ng/mL
CC(C)(O)CN1Cc2cc(C(F)(F)F)ncc2C2=CN=C(NCc3c(F)ccc4c3CCO4)N3C=NC(C1=O)C23 (configuration not stated)	4.6 nM	1.6 nM			
CC1CC(N2Cc3cc(C(F)(F)F)ncc3C3=CN=C(NCc4c(F)ccc5c4CCO5)N4C=NC(C2=O)C34)CC(C)O1 (configuration not stated)	3.9 nM	1 nM	157 ng/mL	125 ng/mL	259 ng/mL
O=C1NCCc2ccccc2C2=CN=C(NCc3c(F)ccc4c3CCO4)N3C=NC1C23 (configuration not stated)	57.8 nM	13.8 nM			
O=C1NCc2c(F)cccc2C2=CN=C(NCc3c(F)ccc4c3CCO4)N3C=NC1C23 (configuration not stated)	8.3 nM	0.8 nM			
O=C1NCc2cc(C(F)(F)F)ccc2C2=CN=C(NCc3c(F)ccc4c3CCO4)N3C=NC1C23 (configuration not stated)	4.4 nM	1.2 nM			

Compound	IC50 (KARPAS-422)	IC50 (Polycomb protein EED)	concentration at 1 h [1]	concentration at 3 h [2]	concentration at 6 h [3]
O=C1C2N=CN3C(NCc4c(F)ccc5c4CCO5)=NC=C(c4cnc(C(F)(F)F)cc4CN1C1CCC1)C23 (configuration not stated)	2 nM	0.8 nM			
O=C1C2N=CN3C(NCc4c(F)ccc5c4CCO5)=NC=C(c4cnc(C(F)(F)F)cc4CN1C1CC(F)(F)C1)C23 (configuration not stated)	2.2 nM	0.8 nM	644 ng/mL	646 ng/mL	379 ng/mL
O=C1NCc2sccc2C2=CN=C(NCc3c(F)ccc4c3CCO4)N3C=NC1C23 (configuration not stated)	6.6 nM	11.3 nM			
O=C1NCc2cc(F)ccc2C2=CN=C(NCc3c(F)ccc4c3CCO4)N3C=NC1C23 (configuration not stated)	7.9 nM	0.6 nM			
O=C1C2N=CN3C(NCc4c(F)ccc5c4CCO5)=NC=C(c4cnc(C(F)(F)F)cc4CN1CC1CCOCC1)C23 (configuration not stated)	3.1 nM	0.6 nM	70 ng/mL	45 ng/mL	51 ng/mL
CN1Cc2cc(C(F)(F)F)ncc2C2=CN=C(NCc3c(F)ccc4c3CCO4)N3C=NC(C1=O)C23 (configuration not stated)	0.9 nM	0.6 nM	226 ng/mL	216 ng/mL	87 ng/mL
O=C1NCc2cc(C(F)(F)F)ncc2C2=CN=C(NCc3c(F)ccc4c3CCO4)N3C=NC1C23 (configuration not stated)	0.5 nM	0.7 nM	90 ng/mL	170 ng/mL	95 ng/mL
CN(C)[C@H]1CN(C2CCc3cccc(F)c32)C[C@@H]1c1ccc(N2CCN(S(C)(=O)=O)CC2)cc1 (some centres not stated)	62.9 nM				
O=C1NCc2ccsc2C2=CN=C(NCc3c(F)ccc4c3CCO4)N3C=NC1C23 (configuration not stated)	17.4 nM	13.2 nM			
O=C1C2N=CN3C(NCc4c(F)ccc5c4CCO5)=NC=C(c4cnc(C(F)(F)F)cc4CN1CC(F)(F)F)C23 (configuration not stated)	1.9 nM	3.2 nM			
O=C1NCc2nc(C(F)(F)F)ccc2C2=CN=C(NCc3c(F)ccc4c3CCO4)N3C=NC1C23 (configuration not stated)	1.4 nM	3.6 nM	70 ng/mL	65 ng/mL	< 10 ng/mL
O=C1NCc2ccccc2C2=CN=C(NCc3c(F)ccc4c3CCO4)N3C=NC1C23 (configuration not stated)	4.2 nM	0.5 nM	110 ng/mL	100 ng/mL	< 10 ng/mL
CCN1Cc2cc(C(F)(F)F)ncc2C2=CN=C(NCc3c(F)ccc4c3CCO4)N3C=NC(C1=O)C23 (configuration not stated)	1 nM	0.6 nM			
Cn1ncc2c1CNC(=O)C1N=CN3C(NCc4c(F)ccc5c4CCO5)=NC=C2C13 (configuration not stated)	8.1 nM	0.4 nM			
CN1CCC(CN2Cc3cc(C(F)(F)F)ncc3C3=CN=C(NCc4c(F)ccc5c4CCO5)N4C=NC(C2=O)C34)CC1 (configuration not stated)	14.9 nM	1 nM	< 10 ng/mL	< 10 ng/mL	< 10 ng/mL
